Data as given in patent US11306078B2, “Piperidine CXCR7 receptor modulators” (IDORSIA PHARMACEUTICALS LTD., priority 2016, dated 2022).

The compounds below were run against human chemokine receptor CXCR7 (Homo sapiens (Human), UniProt P25106) (assay: Tango CXCR7-bla U2OS beta-arrestin recruitment assay (beta-lactamase reporter, FRET), antagonism of CXCL12/SDF1-α). Settings: antagonistic effect on CXCR7; Tango CXCR7-bla U2OS cells, CXCL12/SDF1-α at its EC80.
Assay type: cell-based
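Also: compounds preincubated 15 min before CXCL12 addition, then 22 h at 37 °C, FRET emission ratio read with CCF4-AM substrate after 2 h.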

Sequence of human chemokine receptor CXCR7 (P25106 whole entry): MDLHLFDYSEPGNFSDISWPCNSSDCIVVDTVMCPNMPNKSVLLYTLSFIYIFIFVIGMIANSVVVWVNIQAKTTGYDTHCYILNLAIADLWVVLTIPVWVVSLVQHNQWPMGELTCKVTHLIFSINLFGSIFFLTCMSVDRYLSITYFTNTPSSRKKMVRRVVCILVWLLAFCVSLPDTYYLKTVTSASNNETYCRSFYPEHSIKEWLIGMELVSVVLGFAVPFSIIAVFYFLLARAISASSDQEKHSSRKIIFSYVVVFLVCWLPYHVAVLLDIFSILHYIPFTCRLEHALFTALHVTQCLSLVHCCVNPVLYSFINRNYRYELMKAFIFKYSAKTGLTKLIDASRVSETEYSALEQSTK

Row | IC50 [nM] | Compound
1 | 193 | CC(NC(=O)[C@@H]1CN(C2CCCCC2)CC[C@H]1NC(=O)c1cc(-c2ccc(F)cc2F)on1)C1CCC1 (relative stereo) [Example 1.078, (3R*,4R*)-1-Cyclohexyl-4-{[5-(2,4-difluoro-phenyl)-isoxazole-3-carbonyl]-amino}-piperidine-3-carboxylic acid ((1RS)-1-cyclobutyl-ethyl)-amide]
2 | 445 | CC(CF)NC(=O)[C@@H]1CN(C2CCCCC2)CC[C@H]1NC(=O)c1cc(-c2ccc(F)cc2F)on1 (relative stereo) [Example 1.082, (3R*,4R*)-1-Cyclohexyl-4-{[5-(2,4-difluoro-phenyl)-isoxazole-3-carbonyl]-amino}-piperidine-3-carboxylic acid ((1RS)-2-fluoro-1-methyl-ethyl)-amide]
3 | 76 | CCOCC(C)NC(=O)[C@@H]1CN(C2CCCCC2)CC[C@H]1NC(=O)c1cc(-c2ccc(F)cc2F)on1 (relative stereo) [Example 1.083, (3R*,4R*)-1-Cyclohexyl-4-{[5-(2,4-difluoro-phenyl)-isoxazole-3-carbonyl]-amino}-piperidine-3-carboxylic acid ((1RS)-2-ethoxy-1-methyl-ethyl)-amide]
4 | 223 | CC1(NC(=O)[C@@H]2CN(C3CCCCC3)CC[C@H]2NC(=O)c2cc(-c3ccc(F)cc3F)on2)CCOC1 (relative stereo) [Example 1.084, (3R*,4R*)-1-Cyclohexyl-4-{[5-(2,4-difluoro-phenyl)-isoxazole-3-carbonyl]-amino}-piperidine-3-carboxylic acid ((3RS)-3-methyl-tetrahydro-furan-3-yl)-amide]
5 | 268 | Cc1nnc(C(C)NC(=O)[C@@H]2CN(C3CCCCC3)CC[C@H]2NC(=O)c2cc(-c3ccc(F)cc3F)on2)o1 (relative stereo) [Example 1.085, (3R*,4R*)-1-Cyclohexyl-4-{[5-(2,4-difluoro-phenyl)-isoxazole-3-carbonyl]-amino}-piperidine-3-carboxylic acid [(1RS)-1-(5-methyl-[1,3,4]oxadiazol-2-yl)-ethyl]-amide]
6 | 154 | CC(NC(=O)[C@@H]1CN(C2CCCCC2)CC[C@H]1NC(=O)c1cc(-c2ccc(F)cc2F)on1)c1ncc(F)cc1F (relative stereo) [Example 1.086, (3R*,4R*)-1-Cyclohexyl-4-{[5-(2,4-difluoro-phenyl)-isoxazole-3-carbonyl]-amino}-piperidine-3-carboxylic acid [(1RS)-1-(3,5-difluoro-pyridin-2-yl)-ethyl]-amide]
7 | 943 | CC1(NC(=O)[C@@H]2CN(C3CCCCC3)CC[C@H]2NC(=O)c2cc(-c3ccc(F)cc3F)on2)CC(F)(F)C1 (relative stereo) [Example 1.087, rac-(3R*,4R*)-1-Cyclohexyl-4-{[5-(2,4-difluoro-phenyl)-isoxazole-3-carbonyl]-amino}-piperidine-3-carboxylic acid (3,3-difluoro-1-methyl-cyclobutyl)-amide]
8 | 472 | O=C(N[C@@H]1CCN(C2CCCCC2)C[C@H]1C(=O)N1CCC(c2ccccn2)C1)c1cc(-c2ccc(F)cc2F)on1 (relative stereo) [Example 1.089, 5-(2,4-Difluoro-phenyl)-isoxazole-3-carboxylic acid [(3R*,4R*)-1-cyclohexyl-3-((3RS)-3-pyridin-2-yl-pyrrolidine-1-carbonyl)-piperidin-4-yl]-amide]
9 | 103 | C[C@@H](NC(=O)[C@@H]1CN(C2CCCCC2)CC[C@H]1NC(=O)c1cc(-c2ccc(F)cc2F)on1)C1CCC1 (relative stereo) [Example 1.091, (3R*,4R*)-1-Cyclohexyl-4-{[5-(2,4-difluoro-phenyl)-isoxazole-3-carbonyl]-amino}-piperidine-3-carboxylic acid ((R)-1-cyclobutyl-ethyl)-amide]
10 | 1 | C[C@@H](NC(=O)[C@@H]1CN(C2CCCCC2)CC[C@H]1NC(=O)c1cc(-c2ccc(F)cc2F)on1)c1ncccc1F (relative stereo) [Example 1.092, (3R*,4R*)-1-Cyclohexyl-4-{[5-(2,4-difluoro-phenyl)-isoxazole-3-carbonyl]-amino}-piperidine-3-carboxylic acid [(R)-1-(3-fluoro-pyridin-2-yl)-ethyl]-amide]
11 | 867 | C[C@@H](NC(=O)[C@@H]1CN(C2CCCCC2)CC[C@H]1NC(=O)c1cc(-c2ccc(F)cc2F)on1)C(C)(C)C (relative stereo) [Example 1.093, (3R*,4R*)-1-Cyclohexyl-4-{[5-(2,4-difluoro-phenyl)-isoxazole-3-carbonyl]-amino}-piperidine-3-carboxylic acid ((R)-1,2,2-trimethyl-propyl)-amide]
12 | 100 | C[C@@H](NC(=O)[C@@H]1CN(C2CCCCC2)CC[C@H]1NC(=O)c1cc(-c2ccc(F)cc2F)on1)c1ncc(F)cn1 (relative stereo) [Example 1.094, (3R*,4R*)-1-Cyclohexyl-4-{[5-(2,4-difluoro-phenyl)-isoxazole-3-carbonyl]-amino}-piperidine-3-carboxylic acid [(R)-1-(5-fluoro-pyrimidin-2-yl)-ethyl]-amide]
13 | 276 | C[C@@H]1CCC[C@H]1N1CC[C@@H](NC(=O)c2cn(-c3ccc(F)cc3F)nn2)[C@H](C(=O)N(C)C)C1 (relative stereo) [Example 1.098, (3R*,4R*)-4-{[1-(2,4-Difluoro-phenyl)-1H-[1,2,3]triazole-4-carbonyl]-amino}-1-((1RS,2RS)-2-Methyl-cyclopentyl)-piperidine-3-carboxylic acid dimethylamide]
14 | 45 | C[C@@H]1CCC[C@H]1N1CC[C@@H](NC(=O)c2cc(-c3c(F)cc(F)cc3F)on2)[C@H](C(=O)N(C)C)C1 (relative stereo) [Example 1.101, (3R*,4R*)-1-((1RS,2RS)-2-Methyl-cyclopentyl)-4-{[5-(2,4,6-trifluoro-phenyl)-isoxazole-3-carbonyl]-amino}-piperidine-3-carboxylic acid dimethylamide]
15 | 581 | C[C@@H]1CCC[C@H]1N1CC[C@@H](NC(=O)c2cc(-c3c(F)cc(F)cc3F)on2)[C@H](C(=O)N2CCC2)C1 (relative stereo) [Example 1.108, 5-(2,4,6-Trifluoro-phenyl)-isoxazole-3-carboxylic acid [(3R*,4R*)-3-(azetidine-1-carbonyl)-1-((1RS,2RS)-2-methyl-cyclopentyl)-piperidin-4-yl]-amide]
16 | 626 | COCC(C)(C)NC(=O)[C@@H]1CN([C@@H]2CCC[C@H]2C)CC[C@H]1NC(=O)c1cc(-c2c(F)cc(F)cc2F)on1 (relative stereo) [Example 1.114, (3R*,4R*)-1-((1RS,2RS)-2-Methyl-cyclopentyl)-4-{[5-(2,4,6-trifluoro-phenyl)-isoxazole-3-carbonyl]-amino}-piperidine-3-carboxylic acid (2-methoxy-1,1-dimethyl-ethyl)-amide]
17 | 68 | C[C@@H](NC(=O)[C@@H]1CN(C2CCCCC2)CC[C@H]1NC(=O)c1cn(-c2ccc(F)cc2F)nn1)c1ccccn1 (relative stereo) [Example 1.117, (3R*,4R*)-1-Cyclohexyl-4-{[1-(2,4-difluoro-phenyl)-1H-[1,2,3]triazole-4-carbonyl]-amino}-piperidine-3-carboxylic acid ((R)-1-pyridin-2-yl-ethyl)-amide]
18 | 36 | C[C@@H](NC(=O)[C@@H]1CN(C2CCCC2)CC[C@H]1NC(=O)c1cn(-c2ccc(F)cc2F)nn1)c1ccccn1 (relative stereo) [Example 1.118, (3R*,4R*)-1-Cyclopentyl-4-{[1-(2,4-difluoro-phenyl)-1H-[1,2,3]triazole-4-carbonyl]-amino}-piperidine-3-carboxylic acid ((R)-1-pyridin-2-yl-ethyl)-amide]
19 | 146 | C[C@@H](NC(=O)[C@@H]1CN(CC2CC2)CC[C@H]1NC(=O)c1cn(-c2ccc(F)cc2F)nn1)c1ccccn1 (relative stereo) [Example 1.119, (3R*,4R*)-1-Cyclopropylmethyl-4-{[1-(2,4-difluoro-phenyl)-1H-[1,2,3]triazole-4-carbonyl]-amino}-piperidine-3-carboxylic acid ((R)-1-pyridin-2-yl-ethyl)-amide]
20 | 10 | C[C@@H](NC(=O)[C@@H]1CN(C2CCCC2)CC[C@H]1NC(=O)c1cc(-c2c(F)cc(F)cc2F)on1)c1ccccn1 (relative stereo) [Example 1.122, (3R*,4R*)-1-Cyclopentyl-4-{[5-(2,4,6-trifluoro-phenyl)-isoxazole-3-carbonyl]-amino}-piperidine-3-carboxylic acid ((R)-1-pyridin-2-yl-ethyl)-amide]
21 | 15 | C[C@@H](NC(=O)[C@@H]1CN(CC2CC2)CC[C@H]1NC(=O)c1cc(-c2c(F)cc(F)cc2F)on1)c1ccccn1 (relative stereo) [Example 1.123, (3R*,4R*)-1-Cyclopropylmethyl-4-{[5-(2,4,6-trifluoro-phenyl)-isoxazole-3-carbonyl]-amino}-piperidine-3-carboxylic acid ((R)-1-pyridin-2-yl-ethyl)-amide]
22 | 16 | C[C@@H]1CCC[C@H]1N1CC[C@@H](NC(=O)c2cc(-c3c(F)cc(F)cc3F)on2)[C@H](C(=O)N[C@H](C)c2ccccn2)C1 (relative stereo) [Example 1.124, (3R*,4R*)-1-((1RS,2RS)-2-Methyl-cyclopentyl)-4-{[5-(2,4,6-trifluoro-phenyl)-isoxazole-3-carbonyl]-amino}-piperidine-3-carboxylic acid ((R)-1-pyridin-2-yl-ethyl)-amide]
23 | 81 | C[C@@H](NC(=O)[C@@H]1CN(C2CCCCC2)CC[C@H]1NC(=O)c1cc(-c2ccc(F)cc2F)no1)c1ccccn1 (relative stereo) [Example 1.125, (3R*,4R*)-1-Cyclohexyl-4-{[3-(2,4-difluoro-phenyl)-isoxazole-5-carbonyl]-amino}-piperidine-3-carboxylic acid ((R)-1-pyridin-2-yl-ethyl)-amide]
24 | 49 | C[C@@H](NC(=O)[C@@H]1CN(C2CCCC2)CC[C@H]1NC(=O)c1cc(-c2ccc(F)cc2F)no1)c1ccccn1 (relative stereo) [Example 1.126, (3R*,4R*)-1-Cyclopentyl-4-{[3-(2,4-difluoro-phenyl)-isoxazole-5-carbonyl]-amino}-piperidine-3-carboxylic acid ((R)-1-pyridin-2-yl-ethyl)-amide]
